Data published in PubChem BioAssay (NCI).
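Results reflect a 48-hour exposure of cells in 96-well plates to compound at five concentrations. TGI denotes the concentration required for complete inhibition of growth.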

What was measured:
Assay in all cases: NCI-60 cell line screen, 48 h
OVCAR-3 ovarian = system: OVCAR-3 ovarian
U251 CNS = system: U251 CNS
HOP-62 NSCLC = system: HOP-62 NSCLC
BT-549 breast = system: BT-549 breast
NCI-H23 lung = system: NCI-H23 lung
OVCAR-4 ovarian = system: OVCAR-4 ovarian
NCI-H460 lung = system: NCI-H460 lung
SF-539 CNS = system: SF-539 CNS
OVCAR-5 ovarian = system: OVCAR-5 ovarian
DU-145 prostate = system: DU-145 prostate
SK-MEL-5 melanoma = system: SK-MEL-5 melanoma
MALME-3M melanoma = system: MALME-3M melanoma
786-0 renal = system: 786-0 renal
SK-MEL-28 melanoma = system: SK-MEL-28 melanoma
SN12C renal = system: SN12C renal
COLO 205 colon = system: COLO 205 colon
MDA-MB-231 breast = system: MDA-MB-231 breast
CAKI-1 renal = system: CAKI-1 renal
EKVX NSCLC = system: EKVX NSCLC
UO-31 renal = system: UO-31 renal
UACC-257 melanoma = system: UACC-257 melanoma
KM12 colon = system: KM12 colon
SK-OV-3 ovarian = system: SK-OV-3 ovarian
RPMI-8226 leukemia = system: RPMI-8226 leukemia
SF-295 CNS = system: SF-295 CNS
NCI/ADR-RES ovarian = system: NCI/ADR-RES ovarian
TK-10 renal = system: TK-10 renal
NCI-H226 lung = system: NCI-H226 lung
SF-268 CNS = system: SF-268 CNS
OVCAR-8 ovarian = system: OVCAR-8 ovarian
MOLT-4 leukemia = system: MOLT-4 leukemia
SNB-19 CNS = system: SNB-19 CNS
NCI-H522 lung = system: NCI-H522 lung
IGROV1 ovarian = system: IGROV1 ovarian
HCT-116 colon = system: HCT-116 colon
T-47D breast = system: T-47D breast
ACHN renal = system: ACHN renal
SNB-75 CNS = system: SNB-75 CNS
HCT-15 colon = system: HCT-15 colon
MDA-N = system: MDA-N
HOP-92 NSCLC = system: HOP-92 NSCLC
MDA-MB-435 = system: MDA-MB-435
RXF 393 renal = system: RXF 393 renal
M14 melanoma = system: M14 melanoma
A498 renal = system: A498 renal
HT29 colon = system: HT29 colon
SW-620 colon = system: SW-620 colon
A549 NSCLC = system: A549 NSCLC
LOX IMVI melanoma = system: LOX IMVI melanoma
MCF7 breast = system: MCF7 breast
HL-60(TB) leukemia = system: HL-60(TB) leukemia
PC-3 prostate = system: PC-3 prostate
HCC-2998 colon = system: HCC-2998 colon
SK-MEL-2 melanoma = system: SK-MEL-2 melanoma

Measured: TGI

CC(C)[Si](OC1=C(C(=O)N(C)c2ccccc2Cl)CCCCC1)(C(C)C)C(C)C
not listed: MCF7 breast | HL-60(TB) leukemia | PC-3 prostate | HCC-2998 colon | SK-MEL-2 melanoma
> 100 µM: all other assays above

CC1=CC(=O)C(=CN2C(=O)/C(=C\c3cccnc3)NC2=S)C(=O)O1
not listed: MALME-3M melanoma | RPMI-8226 leukemia | SF-268 CNS | NCI-H522 lung | RXF 393 renal | A498 renal
> 100 µM: all other assays above
